Earlier results in US20140302178A1, “Natural Product for Decreasing Symptoms During Viral Infections” (priority 2013, published 2014).

System: Herpes Simplex Virus (HSV)
Settings: oral antiviral therapy; pooled meta-analysis
For `Nc1nc2c(ncn2COCCO)c(=O)[nH]1` [aciclovir], the “decrease of outbreak duration and the associated pain” value (from here on “decrease”) is listed as 1 days.
For `CC(=O)OCC(CCn1cnc2cnc(N)nc21)COC(C)=O` [famciclovir], the “decrease” value is given as 1 days.
In the case of `CC(C)[C@H](N)C(=O)OCCOCn1cnc2c(=O)[nH]c(N)nc21` [valaciclovir], the “decrease” value is listed as 1 days.
